Reference: US6919455B2, “Purine derivative dihydrate, drugs containing the same as the active ingredient and intermediate in the production thereof” (Mitsubishi Chemical Corporation, priority 1999, dated 2005)

System: PDE IV
Test: PDE IV inhibiting effect (3H-cAMP hydrolysis, crude enzyme from U937 cells)
Conditions: read-out: IC50 (concentration for 50% inhibition) against PDE IV; crude enzyme from cytoplasmic fraction of human monocyte-like U937 cells; 0.4 μM 3H-cAMP; pH 8.0; 30° C., 15 minutes
Experimental: The crude enzyme was purified from a cytoplasmic fraction of human monocyte-like cell strain U937 by using a Q-Sepharose column according to the method of Nicholson et al. (Br. J. Pharmacol., 97, 889 (1989)]. The enzymatic activity was determined by performing a reaction using 0.4 μM ^3H-cAMP as the substrate in 50 mM Tris buffer (pH 8.0) containing 0.1 mg/ml BSA, 1 ml of EDTA and 5 mM MgCl2 at 30° C. for 15 minutes, and then separating the produced ^3H-5′-AMP using a cation exchange column and measuring its radioactivity according to the method of Hidaka et al. [Biochem. Med., 10, 301 (1974)]. After a test compound was added, the reaction mixture was incubated at 30° C. for 15 minutes, and then added with the substrate.

Q: `COc1ccc(Cn2c(C)nc3c(C)nc(OCCCc4cc[n+]([O-])cc4)nc32)cc1OC1CCCC1` [dihydrate of the present invention, Dihydrate of 4-[[9-[(3-cyclopentyloxy-4-methoxy)benzyl]-6,8-dimethylpurine]-2-yl-3-oxypropyl]pyridine N-oxide] was tested. Which IC50 did it give?
A: Its IC50 is 3.41 nM.
